This is an account of results in patent publication US8741955B2, “D-serine transporter inhibitors as pharmaceutical compositions for the treatment of central nervous system disorders” (Allergan, Inc., priority 2011, dated 2014).

Structures are written as SMILES. “Also recorded” adds a separate entry of the source.

Assay [1] has as its system rat hippocampal astrocytes. The assay can be described thus: [3H]D-serine transport into primary cultures of rat hippocampal astrocytes. The format is cell-based. The conditions noted are these: for IC50: Astrocyte, inhibition of [3H]D-serine transport, rat hippocampal astrocytes, means of at least two determinations; for fraction of D-serine transport represented by the component for which the compound shows higher affinity: two-component inhibition curves in astrocytes.

The next assay concerns the target T1, asc-1 (Rattus norvegicus, UniProt P63116).
T1 construct: from tissue; host or cells: rat forebrain P2 (synaptosome) fraction
T1 sequence (P63116 1-530): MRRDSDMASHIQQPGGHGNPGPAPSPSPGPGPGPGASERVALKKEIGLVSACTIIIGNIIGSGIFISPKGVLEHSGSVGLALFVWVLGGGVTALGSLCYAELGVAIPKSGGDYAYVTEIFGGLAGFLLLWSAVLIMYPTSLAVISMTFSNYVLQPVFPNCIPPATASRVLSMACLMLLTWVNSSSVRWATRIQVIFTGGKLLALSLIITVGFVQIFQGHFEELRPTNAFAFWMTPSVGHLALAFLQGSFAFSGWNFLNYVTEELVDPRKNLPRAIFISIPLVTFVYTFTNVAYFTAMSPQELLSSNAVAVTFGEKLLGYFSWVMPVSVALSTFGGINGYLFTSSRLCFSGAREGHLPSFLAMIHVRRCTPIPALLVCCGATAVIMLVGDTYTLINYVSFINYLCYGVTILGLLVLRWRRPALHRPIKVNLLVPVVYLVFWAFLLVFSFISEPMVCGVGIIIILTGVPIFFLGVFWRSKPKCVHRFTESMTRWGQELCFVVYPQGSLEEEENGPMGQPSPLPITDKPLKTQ
T1 sequence (Q794F9 1-527 partner): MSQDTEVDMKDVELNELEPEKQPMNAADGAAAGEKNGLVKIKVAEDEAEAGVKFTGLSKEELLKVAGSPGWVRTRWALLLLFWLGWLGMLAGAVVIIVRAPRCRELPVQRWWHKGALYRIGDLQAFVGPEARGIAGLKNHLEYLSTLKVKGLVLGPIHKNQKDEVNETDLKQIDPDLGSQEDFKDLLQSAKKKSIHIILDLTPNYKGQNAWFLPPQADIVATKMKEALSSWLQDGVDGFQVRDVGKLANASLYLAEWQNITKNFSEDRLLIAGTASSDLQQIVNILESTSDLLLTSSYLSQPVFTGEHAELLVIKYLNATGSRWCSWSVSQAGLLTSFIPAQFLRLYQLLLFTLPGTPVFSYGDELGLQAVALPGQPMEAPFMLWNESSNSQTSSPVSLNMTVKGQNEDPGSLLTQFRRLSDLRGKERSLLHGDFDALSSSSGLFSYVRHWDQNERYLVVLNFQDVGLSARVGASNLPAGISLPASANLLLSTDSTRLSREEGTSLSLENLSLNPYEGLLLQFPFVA
The assay can be described thus: sodium-independent [3H]D-serine transport into rat forebrain synaptosomes. It is filed as biochemical. The note with it: inhibition of [3H]D-serine transport, rat brain synaptosomes; means of at least two determinations. How it is done:
Under the assay conditions used, the sodium-independent transport of D-serine by rodent forebrain synaptosomes is mediated by asc-1 (Rutter et al., 2007), and the sodium-dependent transport of D-serine into astrocytes in culture is mediated by an ASCT transporter, ASCT2 according to the literature (Ribeiro et al., 2002).
Synaptosome assays: a P2 fraction of rat forebrain was prepared and assayed immediately. Aliquots of the P2 preparation (approx. 1 mg of original tissue weight) were incubated in sodium-free assay buffer (CholineCl: 128 mM, KCl: 3.5 mM; KH2PO4: 1.5 mM; MgCl2: 1 mM; CaCl2: 1 mM; glucose: 10 mM; Tris-acetate buffer: 10 mM, pH7.4) containing [^3H]D-serine (final concentration of 50 nM) and test compounds in duplicate for 4 mins at room temperature. The synaptosomes containing radiolabel were collected by filtration onto Whatman GF/C filters, and washed twice with ice cold assay buffer. Filters were solubilized in scintillation fluid and radioactivity determined in a beta counter. IC50 values were determined as described for the cell-based assays above.

The subject of assay [2] is amphetamine-induced hyperlocomotion in mice. Briefly: amphetamine induced hyperactivity. The conditions noted are these: for effect on amphetamine-induced hyperactivity/hyperlocomotion: systemic administration, amphetamine 2 mg/kg s.c. It is filed as in vivo. On the procedure:
C57B/6 male mice (n=5-10/group) were placed in an open field apparatus and their activity was measured for 30 minutes. At 30 minutes, they received a vehicle injection or injection of test compound followed by an injection of amphetamine (2 mg/kg, s.c.) at minute 45. Their activity levels were subsequently measured for another 1 hour post-injection. Total activity for each 5 minute bin (21 total bins) was added to establish the activity curve over the 105 minute testing.

Assay [3] deals with LTP in the rat hippocampal slice. The assay can be described thus: LTP in the rat hippocampal slice preparation. The conditions noted are these: 100 μM.
The target in a further assay is T2, human ASCT2 (Homo sapiens, UniProt Q15758).
T2 construct: expressed in transfected cells; host or cells: HEK (human embryonic kidney) cells
T2 sequence (Q15758 1-541): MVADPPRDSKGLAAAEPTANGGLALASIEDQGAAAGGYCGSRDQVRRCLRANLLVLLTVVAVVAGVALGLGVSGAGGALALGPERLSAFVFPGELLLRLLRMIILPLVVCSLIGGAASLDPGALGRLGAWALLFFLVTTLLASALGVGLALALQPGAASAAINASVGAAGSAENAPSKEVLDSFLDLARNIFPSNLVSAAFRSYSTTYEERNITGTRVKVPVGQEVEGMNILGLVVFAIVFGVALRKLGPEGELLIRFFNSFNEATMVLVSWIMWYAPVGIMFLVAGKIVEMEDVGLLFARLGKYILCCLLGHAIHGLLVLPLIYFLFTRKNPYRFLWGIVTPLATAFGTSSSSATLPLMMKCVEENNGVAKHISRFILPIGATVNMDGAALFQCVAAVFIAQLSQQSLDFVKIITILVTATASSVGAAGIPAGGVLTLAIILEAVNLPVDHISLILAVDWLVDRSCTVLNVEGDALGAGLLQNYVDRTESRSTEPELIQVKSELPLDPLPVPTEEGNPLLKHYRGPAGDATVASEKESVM
Briefly: transport into HEK cells expressing ASCT2. The format is cell-based. The note with it: [3H]L-serine transport, HEK cells. How it is done: (§1) Cell-based assays: the transport of [^3H]L- or D-serine was measured in primary cultures of rat hippocampal astrocytes or in human embryonic kidney (HEK) cells expressing ASCT transporter sub-types. For the astrocyte assays, cells were plated on either 24- or 96-well plates at a density of 50,000 cells per well. For the HEK assays, cells were plated on coated 96-well plates at a density of 80,000 cells/well. Assays were conducted in duplicate at room temperature in assay buffer consisting of: NaCl: 150 mM, KCl: 2 mM; MgCl2: 1 mM; CaCl2: 1 mM; HEPES: Tris buffer: 10 mM, pH7.4. To assess the sodium-dependence of transport, NaCl was replaced in the assay buffer by equimolar choline chloride. Following aspiration of growth medium and 2 washes with assay buffer, cells were incubated with [^3H]L- or D-serine at a final concentration of 1 μM for 5 min (astrocytes) or 1 min (HEK cells), after which the incubation medium was aspirated and the cells washed twice with ice-cold assay buffer. Cells containing radiolabel were solubilized in 100 μl of 1% Triton-X100 and an aliquot counted in a beta counter. IC50 values were determined over a range of at least 6 concentrations and derived from curve-fitting algorithms available in GraphPad Prism 4.

The next assay relates to ASCT2. The note with it: Utsunomiya-Tate 1996; Broer 1999; Torres-Zamorano 1998; cited from earlier work.
A further assay has as its target T3, human ASCT1 (Homo sapiens, UniProt P43007).
T3 construct: expressed in transfected cells; host or cells: HEK (human embryonic kidney) cells
T3 sequence (P43007 1-532): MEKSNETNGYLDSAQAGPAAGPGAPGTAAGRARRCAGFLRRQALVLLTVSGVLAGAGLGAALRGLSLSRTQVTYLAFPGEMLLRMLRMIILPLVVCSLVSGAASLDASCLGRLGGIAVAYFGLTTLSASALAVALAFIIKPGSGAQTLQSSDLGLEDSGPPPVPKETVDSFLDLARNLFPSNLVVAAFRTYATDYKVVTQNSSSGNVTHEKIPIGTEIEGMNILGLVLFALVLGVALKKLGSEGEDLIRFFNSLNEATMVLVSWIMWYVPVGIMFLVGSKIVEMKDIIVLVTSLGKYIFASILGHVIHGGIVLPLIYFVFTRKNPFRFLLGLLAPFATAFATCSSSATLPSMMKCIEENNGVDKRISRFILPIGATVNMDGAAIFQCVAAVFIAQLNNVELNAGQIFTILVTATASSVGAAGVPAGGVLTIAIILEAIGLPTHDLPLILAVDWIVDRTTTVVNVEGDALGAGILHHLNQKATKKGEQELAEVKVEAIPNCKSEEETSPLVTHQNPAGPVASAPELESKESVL
Briefly: transport into HEK cells expressing ASCT1. The note with it: [3H]L-serine transport, HEK cells. It is filed as cell-based. How it is done: as §1

A word on the IC50: it is the concentration at which inhibition is half-maximal. With `NC(C(=O)O)c1ccccc1F` (racemic) [DL-2-fluorophenylglycine], the IC50 in assay [1] was found to be 1570 µM; against asc-1, 348 µM.

As to `N[C@H](C(=O)O)c1ccc(F)cc1` [L-4-fluorophenylglycine], the IC50 in assay [1] is 27.9 µM; against asc-1, 258 µM. The “effect on amphetamine-induced hyperlocomotion at 0.3 mg/kg ip” value in assay [2] (0.3 mg/kg ip) was “significant effect”. In assay [2], the “effect on amphetamine-induced hyperactivity/hyperlocomotion” value is “potent dose-dependent inhibitor”.

Turning to `N[C@@H](CCC(=O)Nc1ccc([N+](=O)[O-])cc1)C(=O)O` [L-GPNA, L-gamma-glutamyl-4-nitroanilide], the IC50 against asc-1 amounted to 453 µM. Also, in assay [3], the “effect on LTP in the rat hippocampal slice” value was “enhance LTP”.

Consider `NC(=O)C[C@H](N)C(=O)O` [L-asparagine], for which half-maximal inhibition against asc-1 (IC50) required 668 µM.

As to `N[C@@H](CCC(=O)OCc1ccccc1)C(=O)O` [L-glutamate-γ-benzyl ester], the IC50 in assay [1] came to 3000 µM; at asc-1, 62 µM.

As for `NC(=O)CC[C@H](N)C(=O)O` [L-glutamine], in assay [1], 1640 µM corresponded to half-maximal inhibition (IC50) and the “fraction of D-serine transport represented by the component for which the compound shows higher affinity” value is “approximately 40%”. On asc-1, this compound came in with an IC50 of 943 µM. Moreover, the “selectivity for ASCT2 over ASCT1” value at human ASCT2 is “showed selectivity towards ASCT2; also recorded: selective for ASCT2”. Further, the “affinity for ASCT2 reported in the literature” value with ASCT2 was 23 to 70 µM.

As to `N[C@@H](CO)C(=O)O` [L-serine], the IC50 worked out at 57.9 µM in assay [1] and 9.6 µM on asc-1.

For the compound `O=C(O)[C@@H]1C[C@@H](O)CN1` [L-trans-4-hydroxyproline], the IC50 is 38.9 µM in assay [1] and above 10000 µM at asc-1. The “fraction of D-serine transport represented by the component for which the compound shows higher affinity” value in assay [1] was “approximately 60%”. The “selectivity for ASCT1 over ASCT2” value is given as “showed selectivity towards ASCT1” at human ASCT1 (listed as L-t-4OHPro) and “selective for ASCT1” at human ASCT1 (listed as L-trans-4OHPro).

`O=C(O)[C@@H]1C[C@@H](Cc2ccc(Cl)cc2Cl)CN1` [R-gamma-2,4-dichlorobenzyl-L-proline]: the “effect on amphetamine-induced hyperactivity/hyperlocomotion” value in assay [2] is “effective”.

Consider `N[C@@H](CSCc1ccccc1)C(=O)O` [S-benzyl-L-cysteine], for which the IC50 against asc-1 was found to be 86 µM.

For `N[C@@H](CSc1ccccc1)C(=O)O` [S-phenyl-L-cysteine], the half-inhibitory concentration (IC50) is 597 µM in assay [1] and 29.3 µM against asc-1.
